Source: US20250312332A1, “TREATMENT OF MUSCLE FIBROSIS” (University of Newcastle upon Tyne, priority 2022, published 2025)
Where “and” joins values, the source holds several entries; their conditions need not be identical. Identical values can stand only once. Entries after “also recorded” stand apart in the source; their conditions may differ. Like-named read-outs stand apart in the source and are kept apart here.

Experiments:
FAPs [1] = type: cell-based, human; settings: for increase in FAPs proliferation: vs untreated FAPs
FAPs [2] = tested on: FAPs
[3] = tested on: myosin light chain 2 (p-MLC2); type: cell-based, human
FAPs [4] = type: cell-based, human
FAPs [5] = type: cell-based, human; settings: for increase in FAPs migration: vs untreated FAPs
RhoA-GTP = type: cell-based, human; settings: DMD-FAPs, PDGF-AA 50 ng/ml 20 min, vs untreated FAPs
FAPs [6] = type: cell-based, human; remark: listed apart in the source
RhoA pathway = experiment: RhoA downstream effectors in quadriceps of dba/2J-mdx mice (qPCR, IF); type: in vivo, mouse
dba/2J-mdx mice [7] = experiment: Flow cytometry of muscle macrophages in dba/2J-mdx mice; type: in vivo, mouse
dba/2J-mdx mice [8] = experiment: Fasudil treatment of dba/2J-mdx mice: behaviour and weight; settings: mouse, in vivo
dba/2J-mdx mice [9] = experiment: Grip strength test in dba/2J-mdx mice; type: in vivo, mouse; settings: after six weeks of treatment, vs non-treated mice
dba/2J-mdx mice [10] = experiment: Cytokine array of quadriceps in dba/2J-mdx mice; type: in vivo, mouse; settings: treated vs non-treated mice
dba/2J-mdx mice [11] = experiment: Quadriceps histology and immunofluorescence in dba/2J-mdx mice; type: in vivo, mouse

Molecule: PDGF-AA
- increase in FAPs proliferation (FAPs [1]; 48 hours): 3.6 fold
- increase in FAPs proliferation (FAPs [1]; 72 hours): 6 fold
- cell viability (FAPs [2]): did not affect cell viability
- increase in MLC2 phosphorylation ([3]; DMD-FAPs treated with PDGF-AA): 2.3 fold
- release of collagen-I to the culture medium (FAPs [4]; 4 days treatment): increased non-significantly
- increase in FAPs migration (FAPs [5]; 48 hours): 2.48 fold
- increase in FAPs migration (FAPs [5]; 72 hours): 3.37 fold
- increase in the RhoA-GTP levels (RhoA-GTP): 1.88 fold
- polymerization of intracellular actin filaments (FAPs [6]): induced polymerization

Molecule: O=S(=O)(c1cccc2cnccc12)N1CCCNCC1 [Fasudil, 5-(1,4-diazepan-1-ylsulfonyl)isoquinoline]
- decrease in proliferation rate (FAPs [1]): 2.6 fold
- proliferation inhibition (FAPs [1]): lack of proliferation inhibition
- cell viability (FAPs [2]): did not affect cell viability; also recorded: neither C3-exoenzyme nor fasudil had any effect on cell viability
- RhoA pathway downstream effector targets (ROCK2, LIMK2, FHOD1) (RhoA pathway; 100 mg/kg/day orally 6 weeks): inhibited RhoA pathway
- protein expression of LIMK2 (RhoA pathway; treated vs untreated mice): significantly reduced
- protein expression of MLC2 (RhoA pathway; treated vs untreated mice): significantly reduced
- decrease in the number of F4/80 positive cells (dba/2J-mdx mice [7]; flow cytometry, treated vs non-treated mice): 18.3%
- reduction in the expression levels of CD163 marker in macrophages (dba/2J-mdx mice [7]; skeletal muscles of treated mice): 31%
- reduction in the expression levels of CD206 marker in macrophages (dba/2J-mdx mice [7]; treated mice): 18%
- expression levels or number of CD209 cells (M2 macrophages) (dba/2J-mdx mice [7]; treated vs non-treated mice): did not observe any difference
- percentage of positive cells or expression of CD80 and DR (M1 markers) (dba/2J-mdx mice [7]; treated vs non-treated mice): did not observe changes
- lower number of CD163+ cells (dba/2J-mdx mice [7]; vs non-treated mice): 3%
- lower number of CD206+ cells (dba/2J-mdx mice [7]; vs non-treated mice): 10%
- behaviour during the treatment period (adverse effects) (dba/2J-mdx mice [8]): did not experience any change in their behaviour
- body weight, treated vs untreated mice (dba/2J-mdx mice [8]): decrease in weight
- effect on PDGF-AA-induced MLC2 phosphorylation [3]: reversed
- release of collagen-I to the culture medium (FAPs [4]): reversed
- increase in forelimb strength (dba/2J-mdx mice [9]): 1.76 fold
- TNFα, IL-4, IL-17, CXCL1, CXCL2, CXCL10, CCL2, CCL3 or CCL17 cytokine levels (dba/2J-mdx mice [10]): reduction
- reduction of migration rate (FAPs [5]): 2.43 fold and 4 fold
- reduction in collagen-I area in the quadriceps (dba/2J-mdx mice [11]; 100 mg/kg/day orally 6 weeks): 23%
- myofiber size (dba/2J-mdx mice [11]; treated vs non-treated mice): significant increase
- neutrophil population in quadriceps (dba/2J-mdx mice [11]; treated vs non-treated mice): trend towards a reduction
- number of T and B cells in quadriceps (dba/2J-mdx mice [11]; treated vs non-treated mice): no changes
- decrease in the PDGFRα area (number of FAPs) in quadriceps (dba/2J-mdx mice [11]; treated vs non-treated, not significant): 42%
- reduction of quadriceps area stained with F4/80 (macrophages) (dba/2J-mdx mice [11]; treated vs untreated mice): 74%
- polymerization of intracellular actin filaments (FAPs [6]): impinged
